Measurements published in patent US20040067592A1, “Process for controlling microbial contamination of polymeric emulsions using carbon dioxide detection” (priority 2002, published 2004).
Where a name gives a salt, the structure may show the parent alone.

Assays:
[1] = tested on: Gluconoacetobacter liquefaciens; experiment: Headspace carbon dioxide concentration over inoculated AIRFLEX 400 emulsion after biocide addition; format: cell-based
Excerpt: Sterile AIRFLEX® 400 (1600 grams) poly(vinyl alcohol) stabilized vinyl acetate/ethylene polymeric emulsion was placed in a 2L plastic Nalgene container. The plastic cover was modified with two ports. The first port was used to mount and insert the carbon dioxide sensor and the second, much smaller diameter port was left open to the atmosphere to permit venting and a constant pressure within the container. A Vaisala GMT222 direct reading carbon dioxide transmitter connected to a data logger and computer was used as the measuring device. The cover was then screwed on tightly and the headspace carbon dioxide concentration measured over the course of 3 days. During this entire monitoring period the headspace carbon dioxide concentration remained steady at approximately 400 ppm.
(§1) In an effort to determine the efficacy of carbon dioxide measurement as a detection mechanism for microbial growth, AIRFLEX 400 (1600 grams) poly(vinyl alcohol) stabilized (some biocide present) vinyl acetate/ethylene polymeric emulsion was inoculated with Gluconoacetobacter liquefaciens. The resulting concentration of Gluconoacetobacter liquefaciens in the Airflex 400 emulsion was measured via a dilution plate count on potato dextrose agar and found to be 5.4×10^4 cfu/ml. The contaminated emulsion was placed in a 2L plastic Nalgene container. The modified cover, equipped with the carbon dioxide sensor and vent hole, described in Example 1 was tightly screwed on. The headspace carbon dioxide level began rising above background (˜400 ppm) within a matter of minutes. After continually monitoring this sample for 2 days, the headspace carbon dioxide concentration leveled out at about 1600 ppm.
To the same contaminated sample described in Example 2 was added 400 ppm of dodecylguanidine hydrochloride (DGH) biocide to reduce the Gluconoacetobacter liquefaciens concentration.
(§2) The sample was then monitored for headspace carbon dioxide concentration as described in Examples 1 and 2. After continually monitoring this sample for 2 days the headspace carbon dioxide concentration leveled out at about 1150 ppm. A sample of the AIRFLEX 400 poly(vinyl alcohol) stabilized vinyl acetate/ethylene polymeric emulsion was removed from the container and the concentration of Gluconoacetobacter liquefaciens was measured on potato dextrose agar using a dilution plate count method.
as §2, with “To the same contaminated sample described in Example 3 was added an additional 375 ppm DGH to further reduce the Gluconoacetobacter liquefaciens concentration. The” for “The”, “for 3” for “for 2”, “about 1000” for “about 1150”
as §2, with “To the same contaminated sample described in Example 4 was added an additional 350 ppm DGH to further reduce the Gluconoacetobacter liquefaciens concentration. The” for “The”, “for 3” for “for 2”, “about 800” for “about 1150”, “400” for “400 poly(vinyl alcohol) stabilized vinyl acetate/ethylene polymeric”

[2] = tested on: Gluconoacetobacter liquefaciens; experiment: Dilution plate count on potato dextrose agar of inoculated AIRFLEX 400 emulsion after biocide addition; format: cell-based
Procedure: as §1, §2
as §2, with “To the same contaminated sample described in Example 3 was added an additional 375 ppm DGH to further reduce the Gluconoacetobacter liquefaciens concentration. The” for “The”, “for 3” for “for 2”, “about 1000” for “about 1150”
as §2, with “To the same contaminated sample described in Example 4 was added an additional 350 ppm DGH to further reduce the Gluconoacetobacter liquefaciens concentration. The” for “The”, “for 3” for “for 2”, “about 800” for “about 1150”, “400” for “400 poly(vinyl alcohol) stabilized vinyl acetate/ethylene polymeric”

[3] = Example 3, biocide 400 ppm, time 24 hour
[4] = Example 4, biocide 375 ppm (additional), time 96 hour
[5] = Example 5, biocide 350 ppm (additional), time 96 hour

## CCCCCCCCCCCCNC(=N)N [DGH, dodecylguanidine hydrochloride]
[1]; Example 3: 400 ppm DGH added to contaminated AIRFLEX 400 (5.4×10^4 cfu/ml, 1600 ppm CO2 before), monitored 2 days, background ~400 ppm
  headspace carbon dioxide concentration leveled out: about 1150 ppm
[1]; [3]
  CO2: 1150 ppm
[1]; Example 4: additional 375 ppm DGH added to Example 3 sample (400 ppm DGH), monitored 3 days
  headspace carbon dioxide concentration leveled out: about 1000 ppm
[1]; [4]
  CO2: 1000 ppm
[1]; Example 5: additional 350 ppm DGH added to Example 4 sample (400 + 375 ppm DGH), monitored 3 days
  headspace carbon dioxide concentration leveled out: about 800 ppm
[1]; [5]
  CO2: 800 ppm
[2]; Example 3: 400 ppm DGH added to contaminated AIRFLEX 400 (5.4×10^4 cfu/ml before), after 2 days
  Gluconoacetobacter liquefaciens contamination level: 1.30×10^4 cfu/ml
[2]; [3]
  Contamination: 1.3 × 10^4 CFU/ml
[2]; Example 4: additional 375 ppm DGH added to Example 3 sample (400 ppm DGH), after 3 days
  Gluconoacetobacter liquefaciens contamination level: 4.40×10^3 cfu/ml
[2]; [4]
  Contamination: 4.4 × 10^3 CFU/ml
[2]; Example 5: additional 350 ppm DGH added to Example 4 sample (400 + 375 ppm DGH), after 3 days
  Gluconoacetobacter liquefaciens contamination level: 3.20×10^2 cfu/ml
[2]; [5]
  Contamination: 3.2 × 10^2 CFU/ml
